From patent US4512986A, “Progrestationally active steroids” (priority 1983, dated 1985)
“Also recorded” adds a separate entry of the source. Where two headings read alike, the source gives them in different places.

Columns and labels:
[1] = target: T1, Cytosol Progesterone Receptor of the Estrogen-primed Immature Rabbit Uterus (Oryctolagus cuniculus, UniProt P06186); experiment: Relative binding affinity for progesterone receptor (competition with 3H-progesterone); set-up: species or system rabbit (New Zealand White); conditions: 16-18 hour incubation, progesterone = 100
T1 construct: cytosol progesterone receptor of the estrogen-primed immature rabbit uterus; tissue Dutchland Laboratories, Inc., Denver, Pa (animals); host or cells: uterus cytosol of estradiol-treated immature female New Zealand White rabbits
T1 sequence (P06186 1-930): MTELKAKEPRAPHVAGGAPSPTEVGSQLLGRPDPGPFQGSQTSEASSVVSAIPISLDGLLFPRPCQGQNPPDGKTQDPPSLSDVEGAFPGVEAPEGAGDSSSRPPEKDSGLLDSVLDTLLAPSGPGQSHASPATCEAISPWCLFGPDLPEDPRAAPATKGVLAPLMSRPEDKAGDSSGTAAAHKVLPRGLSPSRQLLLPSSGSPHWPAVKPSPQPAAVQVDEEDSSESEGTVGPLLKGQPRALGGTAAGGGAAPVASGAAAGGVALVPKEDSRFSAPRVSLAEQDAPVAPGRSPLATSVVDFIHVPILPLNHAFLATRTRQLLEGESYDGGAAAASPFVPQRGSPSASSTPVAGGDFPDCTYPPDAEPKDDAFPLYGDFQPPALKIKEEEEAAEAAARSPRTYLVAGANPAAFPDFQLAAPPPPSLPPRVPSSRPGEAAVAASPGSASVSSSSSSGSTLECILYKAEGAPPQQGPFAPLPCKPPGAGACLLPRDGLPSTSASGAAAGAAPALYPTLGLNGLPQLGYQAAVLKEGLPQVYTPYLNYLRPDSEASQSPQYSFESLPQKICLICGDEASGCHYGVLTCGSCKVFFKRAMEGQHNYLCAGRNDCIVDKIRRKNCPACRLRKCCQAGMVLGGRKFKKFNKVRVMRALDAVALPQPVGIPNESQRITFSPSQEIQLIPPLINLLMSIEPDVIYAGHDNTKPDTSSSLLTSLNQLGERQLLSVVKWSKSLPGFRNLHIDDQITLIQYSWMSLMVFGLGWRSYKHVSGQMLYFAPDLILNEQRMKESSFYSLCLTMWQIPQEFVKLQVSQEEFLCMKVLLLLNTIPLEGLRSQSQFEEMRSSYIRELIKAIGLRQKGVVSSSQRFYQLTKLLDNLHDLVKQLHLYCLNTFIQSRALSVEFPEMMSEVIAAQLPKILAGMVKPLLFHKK
Procedure: RBA values recorded at 0° C. after short incubation times (e.g., 2 hr) mainly reflect differences in the association rate constants of the competing ligands, whereas those measured after long incubation times (e.g., 16 to 24 hr) and/or higher temperatures predominantly are influenced by differences in the dissociation rate constants of the competing ligands. RBA's determined after short incubation times primarily reflect the association of the competitor compared to the natural hormone. Conversely, RBA's measured after long incubation times reflect the dissociation rate of the competitor compared to the natural hormone.
The assay components are combined, allowed to equilibrate, and unbound radioactivity removed by charcoal adsorption.
Animal species. Immature female New Zealand White rabbits weighing 0.8 to 1.0 kg (Dutchland Laboratories, Inc., Denver, Pa).
Pretreatment. Subcutaneous treatment with 15 μg 17β-estradiol/0.6 ml sesame oil each morning (0830 to 0930 hr) for three days. Animals sacrificed 24 hr after final injection.
Tissue. Uterus; each uterus weighed about 1.0 g and two or three uteri were pooled for each assay.
Buffer. (A) 0.01M TES, pH 7.4, 1 mM EDTA, 0.012M thioglycerol and 30% glycerol for cytosol preparation and ^3 H-steroid, unlabeled hormone and compound solutions. (B) 0.01M TES, pH 7.4, 1 mM EDTA and 0.012M thioglycerol for charcoal solution.
Homogenization. Five or six 5-second bursts with 30 second cooling periods between bursts using Brinkman Polytron Pt. 10 at 3.5 rheostat setting.
Temperature. 0°-4° C. for all steps.
Centrifugation. 45,000 rpm for 1 hr, 50 Ti rotor, Beckman L8-80 ultracentrifuge.
Incubation. 16-18 hr at 4°-6° C.
Concentations. 1×10^-10 M to 1×10^-5 M (7 concentrations).
Method. Charcoal adsorption method used to remove unbound radioactivity. Five-tenths ml of dextran-coated charcoal (0.5% Norit A and 0.05% dextran T-70) added to all tubes except total radioactivity tubes (0.5 ml buffer [B] added), tubes vortexed 3-5 sec, allowed to sit for 10 minutes and centrifuged 10 minutes at 2000 rpm in Beckman TJ-6 centrifuge at 0°-4° C.
Data Interpretation. […] The relative binding affinity (RBA) of each compound was calculated by using the following equation. [formula] where

[2] = system: uterine endometrium of estrone-primed immature rabbits; experiment: Clauberg assay (progestational activity, McPhail); format: in vivo, rabbit (New Zealand White); conditions: for Uterine Weight (X ± S.D.) / McPhail Index (0-4) (X ± S.D.): oral; for McPhail Index (0-4) (X ± S.D.): 0 none, 4 maximal
[3] = system: androgen target organs of castrate immature male rats; experiment: Anti-androgenic activity in the castrate immature rat assay; format: in vivo
Procedure: The oral anti-androgenic activity of 6-methyl-6-dehydro-17α-ethynylprogesterone was evaluated in the castrate immature male rat assay [Lerner et al., Proc. Soc. […] The assay is briefly described in the footnotes to Table 11.
*This assay employs castrate immature rats. For methods refer to Lerner,
L. J., A. Bianchi and A. Borman, Proc. Soc.
**Groups of rats (7/group) were given daily injections of 0.3 ml sesame
oil (control) or compound (in 0.3 ml sesame oil) for 7 days. Some groups
also concurrently received progestational compounds by the sc or oral
route of administration in order to evaluate antiandrogenic activity. One
day after the final doses, the animals were sacrificed and the androgen
target organs indicated were weighed.
***Statistically significant (p < 0.05) lower organ weights versus the
testosterone, sc, (400 μg/rat/day) group as determined by Analysis of
Variance coupled with Duncan's Multiple Range Test.

[4] = target: T1, Cytosol Progesterone Receptor of the Estrogen-primed Immature Rabbit Uterus; conditions: relative to progesterone = 100; literature; cited from earlier work
[5] = system: estrogen-primed immature rabbits; conditions: cited from earlier work
[6] = system: endometrium of estrogen-primed ovariectomized or climacteric women; conditions: oral; cited from earlier work
[7] = oral 25 μg/rat daily + testosterone sc 400
[8] = oral 100 μg/rat daily + testosterone sc 400
[9] = oral 400 μg/rat daily + testosterone sc 400

C#C[C@]1(C(C)=O)CC[C@H]2[C@@H]3C=C(C)C4=CC(=O)CC[C@]4(C)[C@H]3CC[C@@]21C [17α-Ethynyl-6-methylpregna-4,6-diene-3,20-dione]
RBA ([1]; Assay 6): 104%
potency relative to levonorgestrel, in words ([2]; both given orally): equipotent with levonorgestrel
progestational potency relative to subcutaneous progesterone, in words ([2]; compound given orally, progesterone sc): more than eight times as potent as progesterone administered subcutaneously
Uterine Weight (X ± S.D.) ([2]; 5 μg/rabbit daily): 0.99 ± 0.34 g
McPhail Index (0-4) (X ± S.D.) ([2]; 5 μg/rabbit daily): 0.00 ± 0.0
Uterine Weight (X ± S.D.) ([2]; 10 μg/rabbit daily): 1.11 ± 0.23 g
McPhail Index (0-4) (X ± S.D.) ([2]; 10 μg/rabbit daily): 0.17 ± 0.12
Uterine Weight (X ± S.D.) ([2]; 25 μg/rabbit daily): 2.93 ± 1.33 g
McPhail Index (0-4) (X ± S.D.) ([2]; 25 μg/rabbit daily): 3.33 ± 0.62
Uterine Weight (X ± S.D.) ([2]; 50 μg/rabbit daily): 3.59 ± 0.43 g
McPhail Index (0-4) (X ± S.D.) ([2]; 50 μg/rabbit daily): 4.00 ± 0.00
Levator Ani weight (X ± S.D.) [3, 7]: 63 ± 13 mg
Seminal Vesicles weight (X ± S.D.) [3, 7]: 141 ± 43 mg
Ventral Prostate weight (X ± S.D.) [3, 7]: 61 ± 13 mg
Levator Ani weight (X ± S.D.) [3, 8]: 68 ± 13 mg
Seminal Vesicles weight (X ± S.D.) [3, 8]: 141 ± 9 mg
Ventral Prostate weight (X ± S.D.) [3, 8]: 63 ± 25 mg
Levator Ani weight (X ± S.D.) [3, 9]: 66 ± 9 mg
Seminal Vesicles weight (X ± S.D.) [3, 9]: 129 ± 37 mg
Ventral Prostate weight (X ± S.D.) [3, 9]: 43 ± 12 mg
anti-androgenic activity, in words ([3]; with testosterone sc 400 μg/rat/day, doses up to 400 μg/rat/day (progestagen oral; progesterone sc), listed as 6-methyl-6-dehydro-17α-ethynylprogesterone): significant depression of ventral prostate weight; also recorded: Seminal vesicle weight also was depressed at the same dose level, but the decrease was not statistically significant

CC(=O)[C@H]1CC[C@H]2[C@@H]3CCC4=CC(=O)CC[C@@H]4[C@H]3CC[C@]12C [19-norprogesterone]
RBA (Kontula et al. 1975) [4]: 258

C#C[C@]1(O)CC[C@H]2[C@@H]3CCC4=CC(=O)CC[C@@H]4[C@H]3CC[C@@]21CC [Levonorgestrel, reference compound]
RBA ([1]; Assay 1, 5α-dihydro-17α-ethynyl: lot 1): 111%
Uterine Weight (X ± S.D.) ([2]; 5 μg/rabbit daily): 1.30 ± 0.49 g
McPhail Index (0-4) (X ± S.D.) ([2]; 5 μg/rabbit daily): 0.08 ± 0.12
Uterine Weight (X ± S.D.) ([2]; 10 μg/rabbit daily): 0.86 ± 0.04 g
McPhail Index (0-4) (X ± S.D.) ([2]; 10 μg/rabbit daily): 0.04 ± 0.06
Uterine Weight (X ± S.D.) ([2]; 25 μg/rabbit daily): 2.59 ± 0.81 g
McPhail Index (0-4) (X ± S.D.) ([2]; 25 μg/rabbit daily): 3.71 ± 0.16
Uterine Weight (X ± S.D.) ([2]; 50 μg/rabbit daily): 1.95 ± 0.41 g
McPhail Index (0-4) (X ± S.D.) ([2]; 50 μg/rabbit daily): 2.92 ± 0.42
Uterine Weight (X ± S.D.) ([2]; 100 μg/rabbit daily): 3.57 ± 1.08 g
McPhail Index (0-4) (X ± S.D.) ([2]; 100 μg/rabbit daily): 3.90 ± 0.12
Uterine Weight (X ± S.D.) ([2]; 200 μg/rabbit daily): 2.80 ± 0.14 g
McPhail Index (0-4) (X ± S.D.) ([2]; 200 μg/rabbit daily): 4.00 ± 0.00
Uterine Weight (X ± S.D.) ([2]; 400 μg/rabbit daily): 2.67 ± 0.80 g
McPhail Index (0-4) (X ± S.D.) ([2]; 400 μg/rabbit daily): 3.70 ± 0.47
Threshold or effective dose, Clauberg Assay ([5]; oral): 0.03 mg/animal
Threshold or effective dose, Clauberg Assay ([5]; s.c. (i.m.)): 0.01-0.03 mg/animal
Threshold or effective dose, Kaufman Assay [6]: 6 mg/cycle
